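Each compound was tested at five concentrations against cells in 96-well plates for 48 hours. GI50 marks 50% less growth. The concentration for full growth arrest is given as TGI.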
Key:
Assay in all cases: growth of human tumour cells (NCI), 48 h
786-0 renal = tested on: 786-0 renal
A498 renal = tested on: A498 renal
A549 NSCLC = tested on: A549 NSCLC
ACHN renal = tested on: ACHN renal
BT-549 breast = tested on: BT-549 breast
CAKI-1 renal = tested on: CAKI-1 renal
CCRF-CEM leukemia = tested on: CCRF-CEM leukemia
COLO 205 colon = tested on: COLO 205 colon
DU-145 prostate = tested on: DU-145 prostate
EKVX NSCLC = tested on: EKVX NSCLC
HCC-2998 colon = tested on: HCC-2998 colon
HCT-116 colon = tested on: HCT-116 colon
HCT-15 colon = tested on: HCT-15 colon
HL-60(TB) leukemia = tested on: HL-60(TB) leukemia
HOP-62 NSCLC = tested on: HOP-62 NSCLC
HOP-92 NSCLC = tested on: HOP-92 NSCLC
HS 578T breast = tested on: HS 578T breast
HT29 colon = tested on: HT29 colon
K-562 leukemia = tested on: K-562 leukemia
KM12 colon = tested on: KM12 colon
LOX IMVI melanoma = tested on: LOX IMVI melanoma
M14 melanoma = tested on: M14 melanoma
MCF7 breast = tested on: MCF7 breast
MDA-MB-231 breast = tested on: MDA-MB-231 breast
MDA-MB-435 = tested on: MDA-MB-435
MOLT-4 leukemia = tested on: MOLT-4 leukemia
NCI-H226 lung = tested on: NCI-H226 lung
NCI-H23 lung = tested on: NCI-H23 lung
NCI-H460 lung = tested on: NCI-H460 lung
NCI-H522 lung = tested on: NCI-H522 lung
NCI/ADR-RES ovarian = tested on: NCI/ADR-RES ovarian
OVCAR-3 ovarian = tested on: OVCAR-3 ovarian
OVCAR-4 ovarian = tested on: OVCAR-4 ovarian
OVCAR-5 ovarian = tested on: OVCAR-5 ovarian
OVCAR-8 ovarian = tested on: OVCAR-8 ovarian
PC-3 prostate = tested on: PC-3 prostate
RXF 393 renal = tested on: RXF 393 renal
SF-268 CNS = tested on: SF-268 CNS
SF-295 CNS = tested on: SF-295 CNS
SF-539 CNS = tested on: SF-539 CNS
SK-MEL-2 melanoma = tested on: SK-MEL-2 melanoma
SK-MEL-5 melanoma = tested on: SK-MEL-5 melanoma
SK-OV-3 ovarian = tested on: SK-OV-3 ovarian
SNB-75 CNS = tested on: SNB-75 CNS
SR leukemia = tested on: SR leukemia
SW-620 colon = tested on: SW-620 colon
T-47D breast = tested on: T-47D breast
TK-10 renal = tested on: TK-10 renal
U251 CNS = tested on: U251 CNS
UACC-257 melanoma = tested on: UACC-257 melanoma
UO-31 renal = tested on: UO-31 renal

CNCc1ccc(C)c(NC(=O)c2ccc(Nc3nc(-c4ccccc4)c4ccccc4n3)cc2)c1
GI50 (786-0 renal): 1760 nM | TGI (786-0 renal): 3300 nM | GI50 (A498 renal): 1530 nM | TGI (A498 renal): 3040 nM | GI50 (A549 NSCLC): 1780 nM | TGI (A549 NSCLC): 3400 nM | GI50 (ACHN renal): 2010 nM | TGI (ACHN renal): 3820 nM | GI50 (BT-549 breast): 1840 nM | TGI (BT-549 breast): 3370 nM | GI50 (CAKI-1 renal): 1870 nM | TGI (CAKI-1 renal): 3570 nM | GI50 (CCRF-CEM leukemia): 2070 nM | TGI (CCRF-CEM leukemia): 5430 nM | GI50 (COLO 205 colon): 1840 nM | TGI (COLO 205 colon): 3570 nM | GI50 (DU-145 prostate): 2880 nM | TGI (DU-145 prostate): 7650 nM | GI50 (EKVX NSCLC): 1640 nM | TGI (EKVX NSCLC): 3350 nM | GI50 (HCC-2998 colon): 1960 nM | TGI (HCC-2998 colon): 3580 nM | GI50 (HCT-116 colon): 1680 nM | TGI (HCT-116 colon): 3100 nM | GI50 (HCT-15 colon): 1690 nM | TGI (HCT-15 colon): 3350 nM | GI50 (HL-60(TB) leukemia): 1920 nM | TGI (HL-60(TB) leukemia): 4330 nM | GI50 (HOP-62 NSCLC): 1960 nM | TGI (HOP-62 NSCLC): 3670 nM | GI50 (HOP-92 NSCLC): 687 nM | TGI (HOP-92 NSCLC): 3240 nM | GI50 (HS 578T breast): 1760 nM | TGI (HS 578T breast): 4170 nM | GI50 (HT29 colon): 1860 nM | TGI (HT29 colon): 3980 nM | GI50 (K-562 leukemia): 1910 nM | TGI (K-562 leukemia): 4540 nM | GI50 (KM12 colon): 1970 nM | TGI (KM12 colon): 3880 nM | GI50 (LOX IMVI melanoma): 1670 nM | TGI (LOX IMVI melanoma): 3130 nM | GI50 (M14 melanoma): 1830 nM | TGI (M14 melanoma): 3400 nM | GI50 (MCF7 breast): 1580 nM | TGI (MCF7 breast): 3250 nM | GI50 (MDA-MB-231 breast): 1740 nM | TGI (MDA-MB-231 breast): 3430 nM | GI50 (MDA-MB-435): 1600 nM | TGI (MDA-MB-435): 3220 nM | GI50 (MOLT-4 leukemia): 2100 nM | TGI (MOLT-4 leukemia): 4760 nM | GI50 (NCI-H226 lung): 1980 nM | TGI (NCI-H226 lung): 4900 nM | GI50 (NCI-H23 lung): 1870 nM | TGI (NCI-H23 lung): 3710 nM | GI50 (NCI-H460 lung): 1800 nM | TGI (NCI-H460 lung): 3380 nM | GI50 (NCI-H522 lung): 1860 nM | TGI (NCI-H522 lung): 3570 nM | GI50 (NCI/ADR-RES ovarian): 2250 nM | TGI (NCI/ADR-RES ovarian): 5250 nM | GI50 (OVCAR-3 ovarian): 1900 nM | TGI (OVCAR-3 ovarian): 3840 nM | GI50 (OVCAR-4 ovarian): 1840 nM | TGI (OVCAR-4 ovarian): 4790 nM | GI50 (OVCAR-5 ovarian): 2130 nM | TGI (OVCAR-5 ovarian): 4560 nM | GI50 (OVCAR-8 ovarian): 1850 nM | TGI (OVCAR-8 ovarian): 3930 nM | GI50 (PC-3 prostate): 1920 nM | TGI (PC-3 prostate): 4150 nM | GI50 (RXF 393 renal): 1510 nM | TGI (RXF 393 renal): 2950 nM | GI50 (SF-268 CNS): 2090 nM | TGI (SF-268 CNS): 4260 nM | GI50 (SF-295 CNS): 1840 nM | TGI (SF-295 CNS): 3560 nM | GI50 (SF-539 CNS): 1820 nM | TGI (SF-539 CNS): 3460 nM | GI50 (SK-MEL-2 melanoma): 1900 nM | TGI (SK-MEL-2 melanoma): 3660 nM | GI50 (SK-MEL-5 melanoma): 1710 nM | TGI (SK-MEL-5 melanoma): 3120 nM | GI50 (SK-OV-3 ovarian): 2180 nM | TGI (SK-OV-3 ovarian): 4080 nM | GI50 (SNB-75 CNS): 842 nM | TGI (SNB-75 CNS): 2320 nM | GI50 (SR leukemia): 1790 nM | TGI (SR leukemia): 4860 nM | GI50 (SW-620 colon): 1840 nM | TGI (SW-620 colon): 3570 nM | GI50 (T-47D breast): 2260 nM | TGI (T-47D breast): 5590 nM | GI50 (TK-10 renal): 2120 nM | TGI (TK-10 renal): 4560 nM | GI50 (U251 CNS): 1540 nM | TGI (U251 CNS): 2960 nM | GI50 (UACC-257 melanoma): 1920 nM | TGI (UACC-257 melanoma): 3730 nM | GI50 (UO-31 renal): 1670 nM | TGI (UO-31 renal): 3750 nM
